Results as given in patent US20240309090A1, “MODULATION OF ANDROGEN SIGNALING TO INNATE IMMUNE KILLING OF PROSTATE CANCER” (Brown University, priority 2023, published 2024).
Entries after “also recorded” stand apart in the source; their conditions may differ.

What was measured:
[1] = tested on: NK-92 cells; test: Cytokine secretion of NK-92 monoculture (Luminex 200); assay type: cell-based; conditions: for NK-92 secretion of T cell chemokine CCL5: FIG. 13A (A6); for NK-92 cell secretion of IFN-γ / NK-92 cell secretion of IL-10 / NK-92 cell secretion of granzyme B: monoculture, DHT for 72 h before treatment, supernatant
Procedure: The secretion profile was assessed in monoculture conditions without the PCa cell lines.
The medium was collected 24 hours after treatment and stored at −80° C. until readout. Samples were shipped to Brown University to run them in biological duplicate on a Luminex 200 Instrument (R&D LX200-XPON-RUO), which captures cytokines on magnetic antibody-coated beads and measures cytokine levels using a system based on the principles of flow cytometry (see https:/www.luminexcorp.com/luminex-100200/#overviewfor more information). A custom […] panel was split into 34-plex and 18-plex assays (R&D LXSAHM) and was run on the Luminex 200 instrument according to the manufacturer's protocol.

[2] = tested on: PCa cell lines (DU145, 22Rv1, LNCaP, PC3); test: Western blot of apoptotic and antiapoptotic proteins in PCa cell lines; assay type: cell-based; conditions: for expression of Bcl-XL: 22Rv1; for expression of c-IAP2: DU145 cells and LNCaP; for Survivin levels: LNCaP; for expression of MCL-1: any cell lines
Procedure: We investigated the effects of ARi on PCa cells' expression of Bcl-2 proteins and cytokine secretion to assess a possible priming effect of treatment, making these cells susceptible to NK cell killing. Enzalutamide (5, 10, and 15 μM) and darolutamide (10, 20 μM) reduced the expression of the X-linked inhibitor of apoptosis (XIAP) in DU145, 22Rv1, and LNCaP cell lines (FIG. 14A-B). Western Blot analysis of apoptotic and antiapoptotic proteins on the PCa cell lines with darolutamide (10 and 20 μM) and enzalutamide ([…]) for 48 h. Treatment with ARi on the PCa cell lines evidenced changes in both pro and antiapoptotic proteins, irrespective of ARi sensitivity. The changes in protein expression were not similar in the PCa cell lines and cannot explain a single mechanism of tumor cell priming for NK cell killing.
Anti-apoptotic proteins and androgen receptor expression in prostate cancer cell lines and immune cells (NK-92) were examined using a western blot. A total of 1×10^5 cells were plated and incubated in a 6 or 12-well plate ([…] 229111 and 229105) for 24 hours to allow the cells to adhere (tumor cells). Treatment conditions were added after cell adhesion or in conjunction with NK cells when these were analyzed. Cells were harvested and lysed using RIPA buffer containing protease inhibitor (Cell Signaling Technology 9806S) and phosphatase inhibitor (PHOSS-RO Roche 4906845001). Denaturing sample buffer was added, and samples were boiled at 95° C. for 10 minutes and an equal amount of protein lysate (10-20 ug) was electrophoresed through 4-12% SDS-PAGE gels (Invitrogen) and then transferred to PVDF membranes. The membrane was blocked with 5% milk in 1×TTBS and incubated overnight with the appropriate primary antibody (Cell Signaling c-IAP2 58C7 Rabbit mAb #3130; Cell Signaling XIAP Antibody #2042; Cell Signaling Mcl-1 (D2W9E) Rabbit mAb #94296; Cell Signaling Survivin (71G4B7) Rabbit mAb; Cell Signaling Ran Antibody #4462; Cell Signaling PARP 9542T mAb; Cell Signaling Bcl-2 Antibody #2876; Cell Signaling Bcl-xL (54H6) Rabbit mAb; Sigma Aldrich Monoclonal Anti-B-Actin antibody #A5441; Cell Signaling Androgen Receptor (E3S4N) Rabbit mAb (Carboxy-terminal Antigen) #70317). The primary antibody membranes were incubated in the appropriate HRP-conjugated secondary antibody (either mouse, Thermo Scientific #31430, or rabbit, Thermo Scientific #31460) for two hours. The levels of antibody binding were detected using ECL western blotting detection reagent and the Syngene imaging system.

[3] = tested on: LNCaP; test: Co-culture of GFP-expressing LNCaP with patient-derived NK cells; assay type: cell-based, human; conditions: GFP LNCaP, 1:1, 24 h; monalizumab in combination with enza and daro
Text: (§1) To validate an additive effect of ARi and monalizumab enhancing NK cell cytotoxicity, we performed a co-culture assay with GFP-labeled PCa cell lines (including ARi-sensitive LNCaP and ARi-resistant PC3) and patient-derived NK cells. The NK cells were negatively selected from whole blood from patients with metastatic prostate cancer before initiation of androgen deprivation therapy. The addition of enzalutamide or darolutamide enhanced the cytotoxicity of NK cells, and the combination of ARi with monalizumab potentiated immune killing (FIG. 15C-D).
(§2) Prostate cancer cell lines were dyed with the blue CMAC live-cell dye (Thermo Fisher Scientific #C2110, per manufacturer protocol). Blue-fluorescent cancer cells were plated at a density of 10,000 cells per well of a 48-well plate. NK-92 cells were dyed with green CMFDA (Cayman Chemical Company #19583, per manufacturer protocol). Green-fluorescent NK-92 cells were added to the blue-fluorescent cancer cells at a 1:1 ratio. Enzalutamide (10 μM), darolutamide (20 μM), and 1 μM ethidium homodimer (EthD-1) were added at the same time as the NK cells. After 24 hours of co-culture, images of live cancer cells, live NK cells, and dead cells were taken using a fluorescent microscope. The co-culture experiments were run with internal control conditions and as a single treatment. Normalization was performed after analysis to take baseline death conditions into each experiment run. To optimize the high output of these experiments, a subset of co-cultures were performed using the ImageXpress® Micro Confocal High-Content Imaging. This analysis maintained the experiment conditions, drug concentrations, and the dyeing process. When GFP-labeled tumor cells were used for culture assays, they were added in a 1:1 ratio. Cell adhered over 24 h, and when patient-derived NK cells were added, a control well was trypsinized, and cells resuspended and counted to adjust a 1:1 ratio before treatment addition. The experiments with blocking antibodies were performed using the ImageXpress system. TRAIL blocking ab was purchased from Santa Cruz TRAIL Antibody (RIK-2): sc-56246, and IFN gamma blocking Monoclonal Antibody (NIB42, #6-7318-81) was purchased from Thermo Fisher. The blocking mAb was added when NK cells were combined with tumor cells.
(§3) NK cells were isolated from patients harboring metastatic castration-sensitive prostate cancer using the MojoSort™ Human NK Cell Isolation Kit (#480053). Patients signed informed consent for IRB-approved research protocol number 2055-13, allowing the collection of peripheral blood samples. […] The untouched NK cells (CD56+, CD3−) were collected, and the purity of isolation was determined by flow cytometry using anti-CD56 (BioLegend 362503). […]

[4] = tested on: PC3; test: Co-culture of GFP-expressing PC3 with patient-derived NK cells; assay type: cell-based, human; conditions: GFP PC3, 1:1, 24 h; monalizumab in combination with enza and daro
Text: as §1, §2, §3

[5] = DU145, 22Rv1, LNCaP, enzalutamide 5, 10, 15 μM, darolutamide 10, 20 μM, 48 h

SMILES | NK-92 secretion of T cell chemokine CCL5 [1] | NK-92 cell secretion of IFN-γ [1] | NK-92 cell secretion of IL-10 [1] | NK-92 cell secretion of granzyme B [1] | expression of Bcl-XL [2] | expression of Bcl-XL ([2]; listed as Darolutamide) | expression of XIAP [2, 5] | expression of XIAP ([2]; DU145, 22Rv1, LNCaP, enzalutamide 5, 10, 15 μM, darolutamide 10, 20 μM, 48 h, listed as Darolutamide) | expression of c-IAP2 [2] | expression of c-IAP2 ([2]; listed as Darolutamide) | Survivin levels [2] | Survivin levels ([2]; listed as Darolutamide) | expression of XIAP ([2]; PC3) | expression of MCL-1 [2] | killing of PCa cells by patient-derived NK cells (in words) [3] | killing of PCa cells by patient-derived NK cells (in words) [4] | expression of Bcl-XL ([2]; listed as Enzalutamide) | expression of c-IAP2 ([2]; listed as Enzalutamide) | Survivin levels ([2]; listed as Enzalutamide)
CC(O)c1cc(C(=O)N[C@@H](C)Cn2ccc(-c3ccc(C#N)c(Cl)c3)n2)n[nH]1 (stereo partly shown) [darolutamide] | reduces | 45.6 pg/mL | 15.24 pg/mL | 1599 pg/mL | reduced | lower levels | reduced; also recorded: more pronounced | reduced levels | reduced | reduced levels | decreased | lower levels | did not change | no significant change | enhanced | enhanced |  |  | 
CNC(=O)c1ccc(N2C(=S)N(c3ccc(C#N)c(C(F)(F)F)c3)C(=O)C2(C)C)cc1F [enzalutamide] | reduces | 48.88 pg/mL | 16.6 pg/mL | 1027 pg/mL | reduced |  | reduced levels |  | reduced |  | decreased |  | did not change | no significant change | enhanced | enhanced | lower levels | reduced levels | lower levels
